Legend:
[1] = Tsutsui, n = 5 healthy volunteers, label = administered drug, cited from earlier work
blood pressure [2] = details: cited from earlier work
pilomotor reaction = details: oral, seven healthy volunteers; cited from earlier work
blood pressure [3] = details: oral single dose; cited from earlier work
[4] = Stability of desglymidodrine in solution (comparison of peak areas); format: physicochemical; details: for 0 days (peak area), autoclave series: before autoclave
Source text: The tablets were subject to stability testning. […] The following initial results were obtained:
Stability of desglymidodrinein solution
Based on comparison of peak areas

[5] = Stability of desglymidodrine (calibration curve of desglymidodrine); format: physicochemical
[6] = solution in Buffer pH 7.4, 0 days

COc1ccc(OC)c(C(O)CNC(=O)CN)c1 (stereo not drawn) [midodrine, 2-amino-N-[2-(2,5-dimethoxyphenyl)-2-hydroxyethyl]-acetamide, reference compound]
Tmax midodrine ([1]; analyte midodrine): 1.4 ± 0.2 h | intravenous dose as potent as 5 mg desglymidodrine i.v. with respect to increase of blood pressure (blood pressure [2]; intravenous): 20 to 25 mg | duration of effect (pilomotor reaction) (pilomotor reaction): 150 (30-240) min | time to occurrence of pilomotor reaction (pilomotor reaction): 74 ± 29 min | persistence of pressor effect (blood pressure [3]): 3 to 6 h | time until pressor effect is manifest (blood pressure [3]): 20 to 90 min

COc1ccc(OC)c(C(O)CN)c1 (stereo not drawn) [desglymidodrine, alpha-(aminomethyl)-2,5-dimethoxy-benzenemethanol]
peak area, 0 days ([4]; solution in 0.1N HCl, 0 days): 1548689 | 0 days (peak area), autoclave series ([4]; solution in 0.1N HCl, 0 days): 99 | peak area, 7 days ([4]; solution in 0.1N HCl, 7 days): 1516212 | Autoclave 120° C. ([4]; solution in 0.1N HCl, after autoclave 120° C.): 101 | peak area, 0 days [4, 6]: 1341613 | 0 days (peak area), autoclave series [4, 6]: 102 | peak area, 7 days ([4]; solution in Buffer pH 7.4, 7 days): 1289393 | Autoclave 120° C. ([4]; solution in Buffer pH 7.4, after autoclave 120° C.): 102 | peak area, 0 days ([4]; solution in Water, 0 days): 1582140 | 0 days (peak area), autoclave series ([4]; solution in Water, 0 days): 100 | peak area, 7 days ([4]; solution in Water, 7 days): 1601999 | Autoclave 120° C. ([4]; solution in Water, after autoclave 120° C.): 100 | content of desglymidodrine, 14 days ([5]; Glass, 25° C./60% RH 1.2mioluxh): 103 | content of desglymidodrine, 0 days ([5]; Glass, 25° C./60% RH): 100 | content of desglymidodrine, 14 days ([5]; Glass, 25° C./60% RH): 103 | content of desglymidodrine, 21 days ([5]; Glass, 25° C./60% RH): 100 | content of desglymidodrine, 14 days ([5]; Glass, 40° C./75% RH): 102 | content of desglymidodrine, 21 days ([5]; Glass, 40° C./75% RH): 100 | content of desglymidodrine, 0 days ([5]; Open petri dish, 25° C./60% RH): 100 | content of desglymidodrine, 14 days ([5]; Open petri dish, 25° C./60% RH): 102 | content of desglymidodrine, 21 days ([5]; Open petri dish, 25° C./60% RH): 100 | content of desglymidodrine, 14 days ([5]; Open petri dish, 40° C./75% RH): 102 | content of desglymidodrine, 21 days ([5]; Open petri dish, 40° C./75% RH): 97 | Tmax desglymidodrine ([1]; analyte desglymidodrine): 1.2 ± 0.2 h | duration of blood pressure effect (blood pressure [2]; intravenous injection of 5 mg): 3 to 4 min | duration of effect (pilomotor reaction) (pilomotor reaction): 160 (135-185) min | time to occurrence of pilomotor reaction (pilomotor reaction): 34 ± 25 min

Reference: patent publication US20020147232A1 (priority 2000, published 2002)
